Measurements as given in patent US8629154B2, “Substituted cycloalcano[e and d] pyrazolo [1,5-a]pyrimidines/antagonists of serotonin 5-HT6 receptors and methods for production and the use thereof” (priority 2008, dated 2014).

Assays:
[1] = molecular target: T1, 5-HT6 receptor (Homo sapiens (Human), UniProt P50406); experiment: Competitive radioligand binding ([3H] Lysergic acid diethylamide) to membranes of HeLa cells expressing 5-HT6 receptor; settings: 1.5 nM [3H] Lysergic acid diethylamide, HeLa cell membranes; for IC50: read-out: IC50 of serotonin 5-HT6 receptor inhibition in the setting of competitive binding; for Ki: read-out: Ki of serotonin 5-HT6 receptor inhibition in the setting of competitive binding
T1 sequence (P50406 whole entry): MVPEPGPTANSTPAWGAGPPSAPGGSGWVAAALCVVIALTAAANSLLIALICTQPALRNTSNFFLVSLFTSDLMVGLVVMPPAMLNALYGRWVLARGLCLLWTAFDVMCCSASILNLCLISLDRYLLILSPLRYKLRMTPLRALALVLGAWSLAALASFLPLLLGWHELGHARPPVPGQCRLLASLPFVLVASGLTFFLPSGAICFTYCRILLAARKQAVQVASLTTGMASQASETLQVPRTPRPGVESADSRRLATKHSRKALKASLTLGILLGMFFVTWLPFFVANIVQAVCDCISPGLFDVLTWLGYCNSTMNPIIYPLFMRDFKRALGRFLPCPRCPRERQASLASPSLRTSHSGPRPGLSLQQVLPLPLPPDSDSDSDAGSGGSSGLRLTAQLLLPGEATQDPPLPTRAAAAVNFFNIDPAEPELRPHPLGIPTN
Procedure: Activity determination of serotonin 5-HT6 receptor antagonists of the general formula 1 in the setting of competitive binding to serotonin 5-HT6 receptors.
Screening of disclosed compounds for their potential ability to interact with serotonin 5-HT6 receptors was carried out by method of radioligand binding. For this purpose membrane species were prepared from HeLa cells expressing recombinant human 5-HT6 receptor by means of their homogenization in glass homogenizer with subsequent separation of plasmatic membranes from cell nucli, mitochondria's and cell wreckages by differential centrifugation. Determination of tested compounds binding with 5-HT6 receptors was carried out according to the method described in [Monsma F J Jr, Shen Y, Ward R P, Hamblin M W and Sibley D R, Cloning and expression of a novel serotonin receptor with high affinity for tricyclic psychotropic drugs. Mol. Pharmacol. 43:320-327, 1993]. In the preferred embodiment membrane preparations were incubated with radioligand (1.5 nM [^3H] Lysergic acid diethylamide) without and in the presence of investigated compounds for […] at 37° C. in medium consisting of […], pH 7.4, 150 mM NaCl, 2 mM Ascorbic Acid, 0.001% BSA. After incubation the samples were filtered in vacuo on glass-microfiber filters G/F (Millipor, USA), filters were washed three times with cold solution of medium and radioactivity was measured by scintillation counter MicroBeta 340 (PerkinElmer, USA). Nonspecific binding which made up 30% of overall binding was determined by incubation of membrane preparations with radioligand in the presence of 5 μM Serotonin (5-HT). Methiothepin was used as positive control. Binding of tested compounds with the receptor was determined by their ability to displace the radioligand and expressed in percent of displacement. The percent of displacement was calculated according to the following equation:
[formula] wherein: TA—was overall radioactivity in presence of radioligand only, CA—was radioactivity in presence of radioligand and tested compound and NA—was radioactivity in presence of radioligand and Serotonin (5 μM).

[2] = molecular target: T1, 5-HT6 receptor; experiment: Functional assay: inhibition of serotonin-induced intracellular cAMP (LANCE cAMP) in HEK 293 cells expressing 5-HT6 receptor; assay type: cell-based; settings: read-out: IC50 of serotonin 5-HT6 receptor inhibition in the setting of functional assay
Procedure: Determination of antagonistic activity of compounds of general formulas 1 and 2 towards 5-HT6 receptors. Compounds of general formulas 1 and 2 were tested for their ability to prevent 5-HT6 receptors activation by serotonin. HEK 293 cells (cells of human embryo's kidney) with artificially expressed 5-HT6 receptor, activation of which by serotonin leads to increasing the concentration of intracellular cAMP were used. The content of intracellular cAMP was determined using reagent kit LANCE cAMP (PerkinElmer) according to the method described by the manufacturer of the kit [http://las.perkinelmer.com/content/Manuals/MAN_LANCEcAMP384KitUser.pdf].
Effectiveness of compounds was estimated by their ability to reduce the content of intracellular cAMP induced by serotonin.

[3] = test system: mice; experiment: Passive Avoidance of mice in the Shuttle Chamber, memory disturbed by MK-801; assay type: in vivo; settings: MK-801 0.1 mg/kg, 30 minutes before training
Procedure: A shuttle chamber (Ugo Basile, Italy) consisted of two sections was used. The walls of one section were opaque while the second section had transparent cover. The sections were connected through a hole which could be overlapped by vertical door. The floor was made of transverse metal bars on which DC current impulses could be fed. Experiments were carried out in aged male mice of BALB/c line weighing 20-24 grams.
On the first day of experiment 30 minutes before training mice were injected […] with physiological solutions of Scopolamine (0.3 mg/kg) or Scopolamine in combination with active ingredient 1.2(3). Each group consisted of at least 8 animals. Animals were placed in light section, and latent period of the first entry into dark chamber was registered. Then vertical door was closed and the animal was punished by 0.6 mA DC current for 3 seconds. After that the animal was returned to its living cage. In 22-24 hours the same animal was placed again in light section of the shuttle chamber and the latent period of its first entry into the dark section, the total time of its stay in the light section and the number of entries into the dark section was registered. Each monitoring lasted for 5 minutes.
The experiment was carried out as in example 7. […]

[4] = test system: mice; experiment: Mice Behavior in the Elevated Plus Maze; assay type: in vivo
From the text: Anxiolytic (tranquilizing) action of compounds of general formulas 1 and 2 in the test “Mice Behavior in the Elevated Plus Maze”. The length of each arm in the labyrinth is 30 cm, the width is 5 cm, and the height of walls is 15 cm. Two opposite arms are closed from sides and end faces by transparent walls, the other two arms are lit and opened. A mouse was placed in the center of maze and for the next five minutes the number of entries the opened and closed arms and the time spent in each type of arms was registered. […] The animals usually avoid the open arms (the preference index is between 0.2 and 0.3). Compounds with tranquilizing action increase this index up to 0.5-0.6 or even more and reduce the number of defecations without changing the overall motion activity of the mice (the total number of their entries to the arms).

[5] = test system: aged male mice of BALB/c line; experiment: Passive Avoidance of mice in the Shuttle Chamber, memory disturbed by Scopolamine; assay type: in vivo; settings: Scopolamine 0.3 mg/kg, 30 minutes before training
Procedure: A shuttle chamber (Ugo Basile, Italy) consisted of two sections was used. The walls of one section were opaque while the second section had transparent cover. The sections were connected through a hole which could be overlapped by vertical door. The floor was made of transverse metal bars on which DC current impulses could be fed. Experiments were carried out in aged male mice of BALB/c line weighing 20-24 grams. On the first day of experiment 30 minutes before training mice were injected […] with physiological solutions of Scopolamine (0.3 mg/kg) or Scopolamine in combination with active ingredient 1.2(3). Each group consisted of at least 8 animals. Animals were placed in light section, and latent period of the first entry into dark chamber was registered. Then vertical door was closed and the animal was punished by 0.6 mA DC current for 3 seconds. After that the animal was returned to its living cage. In 22-24 hours the same animal was placed again in light section of the shuttle chamber and the latent period of its first entry into the dark section, the total time of its stay in the light section and the number of entries into the dark section was registered. Each monitoring lasted for 5 minutes. The experiment was carried out during the day time in isolated laboratory using white noise at level of about 70 decibel above human hearing threshold. […]

| IC50 [1] [nM] | Ki [1] [nM] | IC50 [2] [nM] | Structure (SMILES) | Nootropic action (enhancement of memory disturbed by MK-801) [3] | Anxiolytic (tranquilizing) action [4] | Nootropic action (enhancement of memory disturbed by Scopolamine) [5] |
| --- | --- | --- | --- | --- | --- | --- |
| 0.986 | 0.458 | 27 | CSc1nn2c3c(cnc2c1S(=O)(=O)c1ccccc1)CCC3 [1.1(1), 2-methylsulfanyl-3-(phenylsulfonyl)-7,8-dihydro-6H-cyclopenta[e]pyrazolo[1,5-a]pyrimidine] |  |  |  |
| 1.18 | 0.549 | 35 | CSc1nn2c3c(cnc2c1S(=O)(=O)c1ccccc1)CCCC3 [1.2(1), 2-methylsulfanyl-3-(phenylsulfonyl)-6,7,8,9-tetrahydrocyclohexa[e]pyrazolo[1,5-a]pyrimidine] |  |  |  |

The next lines start with the molecule.

| Structure (SMILES) | IC50 [1] [nM] | Ki [1] [nM] | IC50 [2] [nM] | Nootropic action (enhancement of memory disturbed by MK-801) [3] | Anxiolytic (tranquilizing) action [4] | Nootropic action (enhancement of memory disturbed by Scopolamine) [5] |
| --- | --- | --- | --- | --- | --- | --- |
| CSc1nn2c3c(c(C)nc2c1S(=O)(=O)c1ccccc1)CCCC3 [1.2(3), 5-methyl-2-methylsulfanyl-3-(phenylsulfonyl)-6,7,8,9-tetrahydrocyclohexa[e]pyrazolo[1,5-a]pyrimidine] | 0.948 | 0.44 | 32 | produce nootropic effect | exhibits an anxiolytic (tranquilizing) action which is comparable with the activity of Buspirone and Lorasepam | confirm nootropic action |
| CSc1nn2cc3c(nc2c1S(=O)(=O)c1ccccc1)CCCC3 [2(1)] | 17.2 | 7.97 | 479 |  |  |  |
| CSc1nn2c(C)c3c(nc2c1S(=O)(=O)c1ccccc1)CCCC3 [2(2)] | 1.46 | 0.68 | 7.8 |  |  |  |
